Results taken from patent EP0562849A2, “Steroid derivatives” (priority 1992, dated 1993).
Values joined by “and” are separate entries in the source; they are usually repeats but may differ in a detail not shown here. Equal entries are not always repeated. Where two headings read alike, the source gives them in different places.

Columns and labels:
[1] = system: human LDL receptor promoter; assay: in vitro Luciferase Activity Test (LDL receptor promoter-luciferase reporter in recombinant CHO cells); format: cell-based; parameters: MED: unit not given here; conditions: for Emax: Homo sapiens, CHO, read-out: MA%; for Emax / MA%: maximum activity (%) over control; for MED: minimum effective dose (molar concentration, unit not given), 24 hr, assay medium with 0.5 µg/ml 25-hydroxycholesterol; for RED: relative effective dose compared to compound of Example 4, below one = more active
Protocol: A 1546 base pair sequence of the human LDL receptor promoter was amplified using the polymerase chain reaction. A reaction mixture containing 20 pMoles each of the synthetic oligonucleotides 5'-[…]-3' (Seq. I.D. No: 1) and 5'-AAG-[…]-3', (Seq. I.D. No:2) 1 µg human genomic DNA purified from the adenocarcinoma cell line P3UCLA, 200 µM each of dATP, dGTP, dCTP, and TTP, 2.5 units of Taq DNA polymerase, 10mM Tris-HCI pH 8.3, 50 mM KCI, […], 0.1% gelatin in a final volume of 100 µl was subjected to 30 cycles of 15 sec at 96°C, 30 sec at 55°C, and 1 min at 72°C. The material was subject to gel electrophoresis on a 1% agarose gel and the 1546 base pair band was isolated and restriction enzyme digested with Hind III and Nde I. This fragment was ligated into the plasmid pSP72 (ProMega Biotech), which had previously been restriction enzyme nuclease digested with Hind III and Nde I. The resulting vector, pNLDLRP, was restriction endonulease digested with Ndel and Hind III and the material was again run on a 1% agarose gel to reisolate the 1546 bp LDL receptor sequence.
Plasmid vector PSv2 was constructed by digesting plasmid pSv2-globin with Hind III and Bgl II then ligating an Nrul-Xhol linker into the vector. Plasmid pSv2 globin is disclosed in U.S. Patent No. 4,775,624, the entire teaching of which is herein incorporated by reference. The linker contained the following sequences: [formula] (Seq. I.D. No: 3), and [formula] ' (Seq. I.D. No:4).
The resulting vector was designated pSv2-H NXB because it contained a […], an Nrul site, an Xhol site and a Bgl site. The Hind III-Bgl II fragment of plasmid pAlc4(NRRL B-18783), which contains the firefly luciferase gene, was then ligated into the Hin III-Bgl site of plasmid pSv2-HNXB. A neomycin resistance-conforming gene was then ligated into the Bam HI site of the resultant plasmid to form plasmid pSv2.
A 1546 base pair fragment was isolated and cloned into a Ndel and Hind III (partial) restriction digested vector pSv2 containing the firefly luciferase reporter gene and a gene for neomycin resistance. The resulting vector, pLDL-Luc1 Neo-10, contains the human LDL receptor promoter driving expression of the firefly luciferase gene, a gene coding for neomycin resistance, ampicillin resistant marker and an origin of replication.
Plasmid pLDL-Luc 1 Neo-10 was used to stably transfect Chinese Hamster Ovary cells using a Lipofection Reagent kit and procedure from Gibco BRL Research Products Division Life Technologies Inc. Transformants were selected by picking individual colonies grown in Dulbecco's modified Eagle's medium supplimented with 10% fetal bovine serum and containing 500 µg per ml […]. […] Clone S27/B30 was used for subsequent screening.
In developing a cell based screen it is important to have a negative control. The viral SV40 promoter is ideal for this purpose in that it has a number of SP1 elements that enhance gene transcription. These elements are not under the control of end product repression; but they do have a high degree of sequence homology with the 16 base pair long sterol response element found in the LDL receptor promoter. The SV40 promoter should therefore be a sensitive mechanism to screen out agents that induce nonspecific transcription.
Chinese Hamster Ovary cells were stably cotransfected with a vector pSV2AL-A 5' containing the SV40 promoter driving expression of the firefly luciferase gene and a second vector pSV2 NeoBam containing a neomycin resistant marker. Transfections were carried out using the Lipofectin Reagent kit and procedure from Gibco BRL Research Products Division Life Technologies Inc. Transformants were selected by picking individual colonies grown in Dulbecco's modified Eagle's medium supplemented with 10% fetal bovine serum and containing 500 µg per ml of geneticin. Individual clones were selected, lysed and assayed for luciferase production. […]

Syrian Golden hamsters = assay: In vivo serum cholesterol lowering in hamsters fed a cholesterol test diet; conditions: hamsters; for inhibition in vivo at 100 mg/kg/day: Mesocricetus auratus, feed or water, 168 h, read-out: Percent Lowering of Cholesterol from Control Value Mean; for Serum Cholesterol Mean: 0.2% (w/w) in Cholesterol Test Diet for one week, equivalent to 100 mg/kg/day, groups of six, control mean 337
Protocol: Syrian Golden hamsters were fed a cholesterol test diet made of 10% coconut oil and 0.12% cholesterol (by weight) in Purina 5001 Rodent Chow to induce hypercholesteriolemia.
After two weeks on the cholesterol test diet the hamsters were bled from the orbital sinium under light CO2 anesthesia. Serum was prepared and analyzed for cholesterol using a commercial test kit (Cholesterol High Performance, Single Vial™, product of Boehringer Mannheim Corp., Indianapolis, IN, USA). The hamsters were separated into groups of six animals, such that each group had approximately the same mean serum cholesterol levels. Selected compounds of the invention were incorporated into the Cholesterol Test Diet at 0.2% (w/w) and fed to the hamsters for one week. A control group of hamsters continued on the Cholesterol Test Diet during the same one-week period. The dose of test compounds of the invention was equivalent to 100 mg/kg/day based on the weight of the hamsters and their diet consumption. Upon completion of the test period, the animals were bled and serum cholesterol determined as above.
Mean serum cholesterol values from the test hamsters were compared to values from the control group and tested for significance at the Z.05 level using Dunnett's test.

[2] = NA is not active, 30% luciferase activity cutoff point (footnote 1)
[3] = tests using 30% luciferase activity cutoff point (footnote 1)
[4] = 30% luciferase activity cutoff point (footnote 1)
[5] = 0.2% (w/w) in diet for one week (100 mg/kg/day), negative values = serum cholesterol increased relative to control
[6] = 15% luciferase activity cutoff point (footnote 2)
[7] = tests using 15% luciferase activity cutoff point (footnote 2)

| Molecule | Emax [1, 2] [%] | MED [1, 3] | RED [1, 4] | inhibition in vivo at 100 mg/kg/day (Syrian Golden hamsters; [5]) [%] | Serum Cholesterol Mean (Syrian Golden hamsters) [mg/dL] | MA% [1, 2] | Emax [1, 6] [%] | MA% [1, 6] | MED [1, 7] | RED [1, 6] | Percent Lowering of Cholesterol from Control Value Mean (Syrian Golden hamsters; [5]) [%] |
| --- | --- | --- | --- | --- | --- | --- | --- | --- | --- | --- | --- |
| C=CC[C@@H]1[C@H](NC(C)=O)CC[C@@]2(C)[C@H]1CC[C@@H]1[C@@H]2CC[C@]2(C)[C@@H]([C@H](C)CCCC(C)C)CC[C@@H]12 [Example 81, N-[(3α,4α,5α,20β)-4-(2-propenyl)cholestan-3-61]acetamide] | 32 | 44.9 | 7.9 | -7.8 | 364 |  |  |  |  |  |  |
| C/C=C/C[C@@H]1[C@H](O)CC[C@@]2(C)[C@H]1CC[C@@H]1[C@@H]2CC[C@]2(C)[C@@H]([C@H](C)CCCC(C)C)CC[C@@H]12 [Example 4, [4a(E),5a]-4-(2-butenyl)cholestan-3a-ol] | 80 | 2.2 | 1.00 | 37.8 | 210 |  |  |  |  |  |  |
| C=CC[C@H]1C2CC[C@@H]3[C@H](CC[C@]4(C)C(OCCCC(C)C)CC[C@@H]34)[C@@]2(C)CC[C@H]1O (stereo partly drawn) [Example 66, (3α,4α)-17-[(4-methylpentyl)oxy]-4-(2-propenyl)androstan-3-ol] |  |  |  | 30.7 | 234 | 73% and 100% and 105% and 118% |  |  |  |  |  |
| CC(C)CCC[C@@H](C)[C@H]1CC[C@H]2[C@@H]3CCC4[C@H](Cc5ccc(F)cc5)[C@H](O)CC[C@]4(C)[C@H]3CC[C@]12C (stereo partly shown) [Example 23, 4a-(4-fluorobenzyl)cholestan-3a-ol] |  |  |  | 46.3 | 181 |  | 49 | 37% |  |  |  |
| CCC[C@@H]1[C@H](O)CC[C@@]2(C)[C@H]1CC[C@@H]1[C@@H]2CC[C@]2(C)[C@@H]([C@H](C)CCCC(C)C)CC[C@@H]12 [Example 87] | 14 | 23.2 | 8.3 | 31.2 | 222 |  |  |  |  |  |  |
| CC(C)CCC[C@@H](C)[C@H]1CC[C@H]2[C@@H]3CCC4[C@H](Cc5ccc(O)cc5)[C@H](O)CC[C@]4(C)[C@H]3CC[C@]12C (stereo partly shown) [Example 36, 4a-(4-hydroxybenzyl)cholestan-3a-ol] |  |  |  | 22.6 | 261 |  | 20 |  | 40 | 17.6 |  |
| C=CC[C@H]1C2CC[C@@H]3[C@H](CC[C@]4(C)C(OCc5ccccc5)CC[C@@H]34)[C@@]2(C)CC[C@H]1O (stereo partly drawn) [Example 68, (3α,4α)-17-(phenylmethoxy)-4-(2-propenyl)androstan-3-ol] | 42 |  |  | 8.6 | 309 | 33% and 39% |  |  |  |  |  |
| CC(C)CCC[C@@H](C)[C@H]1CC[C@H]2[C@@H]3CCC4[C@H](Cc5ccc(I)cc5)[C@H](O)CC[C@]4(C)[C@H]3CC[C@]12C (stereo partly shown) [Example 25, 4a-(4-iodobenzyl)cholestan-3a-ol] |  |  |  | 28.8 | 240 |  |  | 89% and 64% and 79% |  |  |  |
| C=CCC1C(=O)CC[C@@]2(C)C1CC[C@H]1[C@@H]3CC[C@H]([C@H](C)CCCC(C)C)[C@@]3(C)CC[C@@H]12 (stereo partly shown) [(21), 4-(2-propenyl)cholestan-3-one] |  |  |  | 2 | 330 |  |  |  |  |  |  |
| C=CC[C@@H]1[C@H](N)CC[C@@]2(C)[C@H]1CC[C@@H]1[C@@H]2CC[C@]2(C)[C@@H]([C@H](C)CCCC(C)C)CC[C@@H]12 [Example 86] | 89 | 5.6 | 2.0 | -37.4 | 464 |  |  |  |  |  |  |
| 4a-4-(2-propenyl)cholestan-3-one [Example 72] |  |  |  |  | 267 |  |  |  |  |  | 20.8 |
| C=CC[C@@H]1C[C@@]2(C)[C@@H](CC[C@@H]3[C@@H]2CC[C@]2(C)[C@@H]([C@H](C)CCCC(C)C)CC[C@@H]32)C[C@@H]1O [Example 77, (2a, 3a, 5a)-2-(2-propenyl)cholestan-3-ol] | 60 | 40.8 | 4.6 | 38 | 209 |  |  |  |  |  |  |
| CC(C)CCC[C@@H](C)[C@H]1CC[C@H]2[C@@H]3CCC4[C@H](Cc5ccc(OC(F)(F)F)cc5)[C@H](O)CC[C@]4(C)[C@H]3CC[C@]12C (stereo partly shown) [Example 30, 4a-(4-trifluoromethoxybenzyl)cholestan-3a-ol] |  | 17.3 and 8.9 |  | 38 | 209 | 65% and 92% | 76 |  | 8.9 | 3.2 |  |
